The target in the assay is T1, human calcitonin receptor (hCTR2) (Homo sapiens, UniProt P30988).
T1 construct: expressed in transfected cells
T1 sequence (P30988 25-474): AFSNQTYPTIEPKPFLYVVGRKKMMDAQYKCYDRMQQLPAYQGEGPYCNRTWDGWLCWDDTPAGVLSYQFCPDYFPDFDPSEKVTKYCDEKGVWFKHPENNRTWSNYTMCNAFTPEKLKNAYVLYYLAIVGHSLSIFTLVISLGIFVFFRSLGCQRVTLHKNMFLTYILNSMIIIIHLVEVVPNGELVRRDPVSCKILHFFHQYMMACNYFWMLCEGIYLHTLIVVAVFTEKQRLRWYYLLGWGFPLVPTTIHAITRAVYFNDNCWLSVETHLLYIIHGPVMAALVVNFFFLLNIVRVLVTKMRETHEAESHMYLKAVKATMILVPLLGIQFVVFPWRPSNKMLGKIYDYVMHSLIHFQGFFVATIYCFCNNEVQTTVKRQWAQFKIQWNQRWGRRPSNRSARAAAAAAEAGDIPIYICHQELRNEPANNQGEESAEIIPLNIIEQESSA
The assay is described as follows: hCTR2 assay: induction of cAMP (AlphaScreen cAMP Assay kit) in COS7 cells expressing hCTR2. The format is cell-based. An excerpt: The cell line COS7, originating from African Green Monkey kidney fibroblast cells, was used for establishment of the stable cell lines described below. The COS7 cellular background was used due to it being RAMP naive, and as such it provides the best available system for testing of the monomeric hCTR and different heterodimeric amylin receptor subtypes functionally generated by introduction of the individual RAMPs.
A cell line expressing the human calcitonin receptor (hCTR2) was generated in the COS7 cellular background as stable clones. In brief, hCTR2 (GI: 4502547) was amplified by PCR using primers encoding terminal restriction sites for subcloning. The 5'-end primers additionally encoded a near Kozak consensus sequence to ensure efficient translation. The fidelity of the DNA encoding the receptor was confirmed by DNA sequencing. The PCR products encoding the receptor were subcloned into a mammalian expression vector containing a neomycin (G418) resistance marker. The mammalian expression vector encoding the receptor was transfected into COS7 cells by a standard liposome transfection method. 48 hours post-transfection, cells were seeded for limited dilution cloning and selected with 1 mg/ml G418 in the culture medium. After 3 weeks, surviving colonies of hCTR2-expressing cells were picked, propagated and tested in the amylin efficacy assay as described in Example 3 below. One hCTR2-expressing clone was chosen for compound profiling.
In vitro activity of test peptides at the hCTR2 and hAMYR3 receptors was assessed by measuring the induction of cAMP following stimulation of the receptor by pramlintide or peptides of the invention using the AlphaScreen® cAMP Assay kit from Perkin-Elmer.
Briefly, COS7 cells expressing hCTR2 (see Example 2, above) were seeded at 30-40,000 cells per well in 96-well microtiter plates coated with 0.01 % poly-L-lysine, and grown for 1 day in culture in 100 µl growth medium [DMEM, 10% FCS, Penicillin (100 IU/ml), Streptomycin (100 µg/ml)]. On the day of analysis, growth medium was removed and the cells were washed once with 200 µl Tyrode buffer [Tyrode's Salts (9.6 g/l), 10 mM HEPES, pH 7.4]. Cells were incubated in 100 µl Tyrode buffer containing increasing concentrations of test peptides, 100 µM IBMX and 0.1% casein for 15 min at 37° C. The reaction was stopped by carefully decanting off the compound/buffer medium and replacing it with lysis/detection buffer (80 µl 0.1 % w/v BSA, 5 mM HEPES, 0.3 % v/v Tween-20 in deionized water). After incubation at room temperature for 10 min., the cAMP content of the resulting cell lysate was estimated according to the AlphaScreen® cAMP Assay manufacturer's instructions. EC50 values and relative efficacy values (in %) compared to reference peptide (Pramlintide) were estimated by computer-aided curve fitting using the 4-parameter logistic (4PL) non-linear model.
The in vitro activity results (expressed as EC50 values) for peptides of the invention and for Pramlintide (reference peptide) are summarized in Table 2, below.
(In Alpha technology, singlet oxygen from a donor bead excites a nearby acceptor bead.)

Numbered stars: 1 amine (or outer) side, 2 acyl side, 3 side chain; on linkers, the order of the positions; unused ones are H or OH. Bridge positions count the residues as written; N and C are the ends. Square brackets hold non-standard residues; d marks the D form. Peptide text beside a SMILES is read from it. * marks the point of attachment. C20 diacid = O=C(O)CCCCCCCCCCCCCCCCCCC(=O)*; γGlu = O=C(O)[C@H](CCC(=O)[*:2])N[*:1]; NMeI = CC[C@H](C)[C@H](NC)C(=O)O; Sar = CNCC(=O)O

The term EC50 denotes the concentration at which the effect is half-maximal. In the case of `CC[C@H](C)[C@@H](C(=O)N[C@@H](CC(C)C)C(=O)N[C@@H](CO)C(=O)N[C@@H](CO)C(=O)N[C@H](C(=O)N[C@@H](CC(N)=O)C(=O)N[C@H](C(=O)NCC(=O)N[C@@H](CO)C(=O)N[C@@H](CC(N)=O)C(=O)N[C@H](C(=O)N1CCC[C@H]1C(N)=O)[C@@H](C)O)C(C)C)[C@@H](C)O)N(C)C(=O)[C@H](C)NC(=O)CN(C)C(=O)[C@H](Cc1ccccc1)NC(=O)[C@H](CC(N)=O)NC(=O)[C@H](CC(N)=O)NC(=O)[C@H](CO)NC(=O)[C@H](CO)NC(=O)[C@H](Cc1c[nH]cn1)NC(=O)[C@H](Cc1c[nH]cn1)NC(=O)[C@H](CC(C)C)NC(=O)[C@H](Cc1ccccc1)NC(=O)[C@H](CCC(=O)O)NC(=O)[C@@H](C)NC(=O)[C@H](CC(C)C)NC(=O)[C@H](CCCNC(=N)N)NC(=O)[C@H](CCC(N)=O)NC(=O)[C@@H](NC(=O)[C@H](C)NC(=O)[C@@H]1CSSC[C@H](NC(=O)[C@H](CCCNC(=N)N)NC(=O)CC[C@H](NC(=O)CCCCCCCCCCCCCCCCCCC(=O)O)C(=O)O)C(=O)N[C@@H]([C@@H](C)O)C(=O)N[C@@H](C)C(=O)N[C@@H]([C@@H](C)O)C(=O)N1)[C@@H](C)O` [Compound 7, [19CD]-isoGlu-RC()TATC()ATQRL-DAla-EFLHHSSNNF-Gly(Me)-A-Ile(Me)-LSSTNVGSNTP-NH2] ({C20 diacid-γGlu}-RCTATCATQRL[dA]EFLHHSSNNF[Sar]A[NMeI]LSSTNVGSNTP-NH2; disulfide 2-6), the EC50 is 1.9 nM.

As for `CC[C@H](C)[C@@H](C(=O)N[C@@H](CC(C)C)C(=O)N[C@@H](CO)C(=O)N[C@@H](CO)C(=O)N[C@H](C(=O)N[C@@H](CC(N)=O)C(=O)N[C@H](C(=O)NCC(=O)N[C@@H](CO)C(=O)N[C@@H](CC(N)=O)C(=O)N[C@H](C(=O)N1CCC[C@H]1C(N)=O)[C@@H](C)O)C(C)C)[C@@H](C)O)N(C)C(=O)[C@H](C)NC(=O)CN(C)C(=O)[C@H](Cc1ccccc1)NC(=O)[C@H](CC(N)=O)NC(=O)[C@H](CC(N)=O)NC(=O)[C@H](CO)NC(=O)[C@H](CO)NC(=O)[C@H](Cc1c[nH]cn1)NC(=O)[C@H](Cc1c[nH]cn1)NC(=O)[C@H](CC(C)C)NC(=O)[C@H](Cc1ccccc1)NC(=O)[C@@H](CCC(=O)O)NC(=O)[C@H](C)NC(=O)[C@H](CC(C)C)NC(=O)[C@H](CCCNC(=N)N)NC(=O)[C@H](CCC(N)=O)NC(=O)[C@@H](NC(=O)[C@H](C)NC(=O)[C@@H]1CSSC[C@H](NC(=O)[C@H](CCCNC(=N)N)NC(=O)CC[C@H](NC(=O)CCCCCCCCCCCCCCCCCCC(=O)O)C(=O)O)C(=O)N[C@@H](CC(N)=O)C(=O)N[C@@H]([C@@H](C)O)C(=O)N[C@@H](C)C(=O)N[C@@H]([C@@H](C)O)C(=O)N1)[C@@H](C)O` [Compound 8, [19CD]-isoGlu-RC()NTATC()ATQRLA-DGlu-FLHHSSNNF-Gly(Me)-A-Ile(Me)-LSSTNVGSNTP-NH2] ({C20 diacid-γGlu}-RCNTATCATQRLA[dE]FLHHSSNNF[Sar]A[NMeI]LSSTNVGSNTP-NH2; disulfide 2-7), the EC50 stood at 2.6 nM. Turning to `CC[C@H](C)[C@@H](C(=O)N[C@@H](CC(C)C)C(=O)N[C@@H](CO)C(=O)N[C@@H](CO)C(=O)N[C@H](C(=O)N[C@@H](CC(N)=O)C(=O)N[C@H](C(=O)NCC(=O)N[C@@H](CO)C(=O)N[C@@H](CC(N)=O)C(=O)N[C@H](C(=O)N1CCC[C@H]1C(N)=O)[C@@H](C)O)C(C)C)[C@@H](C)O)N(C)C(=O)[C@H](C)NC(=O)CN(C)C(=O)[C@H](Cc1ccccc1)NC(=O)[C@H](CC(N)=O)NC(=O)[C@H](CC(N)=O)NC(=O)[C@H](CO)NC(=O)[C@H](CO)NC(=O)[C@H](Cc1c[nH]cn1)NC(=O)[C@H](Cc1c[nH]cn1)NC(=O)[C@H](CC(C)C)NC(=O)[C@@H](Cc1ccccc1)NC(=O)[C@H](CCC(=O)O)NC(=O)[C@H](C)NC(=O)[C@H](CC(C)C)NC(=O)[C@H](CCCNC(=N)N)NC(=O)[C@H](CCC(N)=O)NC(=O)[C@@H](NC(=O)[C@H](C)NC(=O)[C@@H]1CSSC[C@H](NC(=O)[C@H](CCCNC(=N)N)NC(=O)CC[C@H](NC(=O)CCCCCCCCCCCCCCCCCCC(=O)O)C(=O)O)C(=O)N[C@@H](CC(N)=O)C(=O)N[C@@H]([C@@H](C)O)C(=O)N[C@@H](C)C(=O)N[C@@H]([C@@H](C)O)C(=O)N1)[C@@H](C)O` [Compound 9, [19CD]-isoGlu-RC()NTATC()ATQRLAE-DPhe-LHHSSNNF-Gly(Me)-A-Ile(Me)-LSSTNVGSNTP-NH2] ({C20 diacid-γGlu}-RCNTATCATQRLAE[dF]LHHSSNNF[Sar]A[NMeI]LSSTNVGSNTP-NH2; disulfide 2-7), the EC50 came to 1.1 nM. Under `CC[C@H](C)[C@@H](C(=O)N[C@@H](CC(C)C)C(=O)N[C@@H](CO)C(=O)N[C@@H](CO)C(=O)N[C@H](C(=O)N[C@@H](CC(N)=O)C(=O)N[C@H](C(=O)NCC(=O)N[C@@H](CO)C(=O)N[C@@H](CC(N)=O)C(=O)N[C@H](C(=O)N1CCC[C@H]1C(N)=O)[C@@H](C)O)C(C)C)[C@@H](C)O)N(C)C(=O)[C@H](C)NC(=O)CN(C)C(=O)[C@H](Cc1ccccc1)NC(=O)[C@H](CC(N)=O)NC(=O)[C@H](CC(N)=O)NC(=O)[C@H](CO)NC(=O)[C@H](CO)NC(=O)[C@H](Cc1c[nH]cn1)NC(=O)[C@@H](Cc1c[nH]cn1)NC(=O)[C@H](CC(C)C)NC(=O)[C@H](Cc1ccccc1)NC(=O)[C@H](CCC(=O)O)NC(=O)[C@H](C)NC(=O)[C@H](CC(C)C)NC(=O)[C@H](CCCNC(=N)N)NC(=O)[C@H](CCC(N)=O)NC(=O)[C@@H](NC(=O)[C@H](C)NC(=O)[C@@H]1CSSC[C@H](NC(=O)[C@H](CCCNC(=N)N)NC(=O)CC[C@H](NC(=O)CCCCCCCCCCCCCCCCCCC(=O)O)C(=O)O)C(=O)N[C@@H](CC(N)=O)C(=O)N[C@@H]([C@@H](C)O)C(=O)N[C@@H](C)C(=O)N[C@@H]([C@@H](C)O)C(=O)N1)[C@@H](C)O` [Compound 11, [19CD]-isoGlu-RC()NTATC()ATQRLAEFL-DHis-HSSNNF-Gly(Me)-A-Ile(Me)-LSSTNVGSNTP-NH2] ({C20 diacid-γGlu}-RCNTATCATQRLAEFL[dH]HSSNNF[Sar]A[NMeI]LSSTNVGSNTP-NH2; disulfide 2-7) stands 2.3 nM; under `CC[C@H](C)[C@@H](C(=O)N[C@@H](CC(C)C)C(=O)N[C@@H](CO)C(=O)N[C@@H](CO)C(=O)N[C@H](C(=O)N[C@@H](CC(N)=O)C(=O)N[C@H](C(=O)NCC(=O)N[C@@H](CO)C(=O)N[C@@H](CC(N)=O)C(=O)N[C@H](C(=O)N1CCC[C@H]1C(N)=O)[C@@H](C)O)C(C)C)[C@@H](C)O)N(C)C(=O)[C@H](C)NC(=O)CN(C)C(=O)[C@H](Cc1ccccc1)NC(=O)[C@H](CC(N)=O)NC(=O)[C@H](CC(N)=O)NC(=O)[C@H](CO)NC(=O)[C@H](CO)NC(=O)[C@@H](Cc1c[nH]cn1)NC(=O)[C@H](Cc1c[nH]cn1)NC(=O)[C@H](CC(C)C)NC(=O)[C@H](Cc1ccccc1)NC(=O)[C@H](CCC(=O)O)NC(=O)[C@H](C)NC(=O)[C@H](CC(C)C)NC(=O)[C@H](CCCNC(=N)N)NC(=O)[C@H](CCC(N)=O)NC(=O)[C@@H](NC(=O)[C@H](C)NC(=O)[C@@H]1CSSC[C@H](NC(=O)[C@H](CCCNC(=N)N)NC(=O)CC[C@H](NC(=O)CCCCCCCCCCCCCCCCCCC(=O)O)C(=O)O)C(=O)N[C@@H](CC(N)=O)C(=O)N[C@@H]([C@@H](C)O)C(=O)N[C@@H](C)C(=O)N[C@@H]([C@@H](C)O)C(=O)N1)[C@@H](C)O` [Compound 12, [19CD]-isoGlu-RC()NTATC()ATQRLAEFLH-DHis-SSNNF-Gly(Me)-A-Ile(Me)-LSSTNVGSNTP-NH2] ({C20 diacid-γGlu}-RCNTATCATQRLAEFLH[dH]SSNNF[Sar]A[NMeI]LSSTNVGSNTP-NH2; disulfide 2-7), 0.088 nM.

These data come from patent publication EP3046573B1, “AMYLIN ANALOGUES” (Zealand Pharma A/S, priority 2013, dated 2015).
